Values quoted from earlier work as cited in patent US20030175234A1, “Use of polyphenols to treat skin conditions” (priority 2002, published 2003).
Where two headings read alike, the source gives them in different places.

Tests used:
[1] = tested on: Ultraviolet-B (UV-B) light ray induced leukocyte infiltration; conditions: mouse skin
[2] = tested on: Ultraviolet-B (UV-B) light ray induced leukocyte infiltration; conditions: human skin

O=C(O[C@@H]1Cc2c(O)cc(O)cc2O[C@@H]1c1cc(O)c(O)c(O)c1)c1cc(O)c(O)c(O)c1 [epigallocatechin gallate]
block of UV-B induced leukocyte infiltration [1]: can block
block of UV-B induced leukocyte infiltration [2]: can block
